# Measured values taken from BindingDB's records for PubMed 3252029 (University of Illinois At Chicago, 1988).
# Values joined by “and” are separate entries in the source; they are usually repeats but may differ in a detail not shown here. Identical values can stand only once.
# Molecular target: T1, Adenosine receptor A1 (Gallus gallus, UniProt P49892)
# T1 sequence (P49892 whole entry): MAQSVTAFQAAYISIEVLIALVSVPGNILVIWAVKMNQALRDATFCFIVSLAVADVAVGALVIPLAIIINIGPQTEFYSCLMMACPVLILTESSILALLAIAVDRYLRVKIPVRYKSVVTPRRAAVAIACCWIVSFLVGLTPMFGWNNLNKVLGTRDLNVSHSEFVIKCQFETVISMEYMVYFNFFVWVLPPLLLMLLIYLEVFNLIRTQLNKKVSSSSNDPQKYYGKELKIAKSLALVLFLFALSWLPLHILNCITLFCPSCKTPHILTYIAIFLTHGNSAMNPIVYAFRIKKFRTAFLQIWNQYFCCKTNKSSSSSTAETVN
row,Structure (SMILES),Ki
1,CCNC(=O)[C@H]1O[C@@H](n2cnc3c(N)ncnc32)[C@H](O)[C@@H]1O,14.4 nM and 16.9 nM
2,"CCn1c(=O)c2[nH]c(-c3ccccc3)nc2n(CC)c1=O [1,3-Diethyl-8-phenyl-3,7-dihydro-purine-2,6-dione]",2070 nM and 790 nM
3,OC[C@H]1O[C@@H](n2cnc3c(NC4CCCCC4)ncnc32)[C@H](O)[C@@H]1O [CHA],2.5 nM
